Laboratory results published in US10463669B2, “Composition for treating or preventing liver cancer” (Seoul National University R&DB Foundation, priority 2016, dated 2019).

Experiments:
[1] = tested on: Hep3B cells; assay: Cell proliferation / cell viability, MTS assay; assay type: cell-based; settings: Homo sapiens, treated for 96 hours
Procedure: (§1) HCC cell lines (Huh7 and Hep3B) were obtained from Korean Cell Line Bank (KCLB, Seoul, Korea). THLE-3 cell line (immortalized human liver […] cell line produced by infection with SV40 large T antigen) was obtained from ATCC (American Type Culture Collection). Cell line authentication by KCLB and ATCC was carried out by using DNA fingerprinting as a short tandem repeat analysis. All cell lines were tested for mycoplasma contamination. HCC cells were cultured in DMEM (Welgene, Gyeongsan-si, Korea) medium complemented with 10% fetal bovine serum (GenDepot, Barker, Tex., USA) in a humidified 5% CO2 incubator at 37° C. As it has been recommended by the ATCC manual, THLE-3 cells were cultured in BEGM (Lonza) medium complemented with 10% fetal bovine serum in a humidified 5% CO2 incubator at 37° C.
(§2) As it has been described before (10), the cell viability was measured by using Cell Titer 96 MTS (Promega). Cells were sewn in an amount of 500 to 1000 cells per well, and then treated for 96 hours at a pharmaceutical concentration as described in each graph. Each analysis was repeated 3 times at least. After plotting the data, IC50 values were obtained by using GraphPad software. By using Flexstation 3 multimode plate reader (Molecular Devices), optical density showing formazan production was measured at 490 nm. […]

[2] = tested on: Huh7 cells; assay: Cell proliferation / cell viability, MTS assay; assay type: cell-based; settings: Homo sapiens, Huh-7, treated for 96 hours
Procedure: as §1, §2

[3] = tested on: β-catenin and SetD1A binding to the TERT promoter in Huh7 cells; assay: Chromatin immunoprecipitation (ChIP) at the TERT promoter; assay type: cell-based, human; settings: HCC (Huh7) cells, with or without 300 μmol/L H2O2
Procedure: As it has been described before (Lim S O, et al. Gastroenterology. 2008; 135: 2128-40, 40 el-8.; Hoffmeyer K, et al. Science. 2012; 336: 1549-54.), several modified ChIP (chromatin immunoprecipitation) tests were carried out. In the presence or absence of a PI3K inhibitor, an AKT inhibitor, or a GSK3β inhibitor, Huh7 cells were cultured for 4 days with or without a treatment of 300 μmol/L H2O2. Under mild shaking for 20 minutes at room temperature, the cells were fixed by using 1% paraformaldehyde. After that, the cells were rinsed twice with ice-cold PBS; resuspended with 400 μL of micrococcal nuclease buffer (50 mmol/L TrisHCl [pH 8.0], 5 mmol/L CaC12, 100 μg/mL BSA, 10 mmol/L KCl, and protease inhibitor cocktail [Roche, Basel, Switzerland; 4693159001]); and disrupted with 2 mm-diameter zirconium beads (Watson); to have micrococcal nuclease digestion (New England Biolabs, Beverly, Mass., USA; M0247S). Chromatin (150 μg) was collected and diluted in a dilution buffer (0.1% NP-40, 2 mmol/L EDTA, 150 mmol/L NaCl, 20 mmol/L TrisHCl [pH 8.0], protease inhibitor cocktail [Roche]), and a phosphatase inhibitor cocktail [Calbiochem]), and then subjected to pre-clearing with 2 μg digested salmon sperm DNA, 10 μL preimmune serum (Santa Cruz Biotechnology; sc-2027), and Dynabeads Protein G (Life Technologies; 1004D) for 2 hours at 4° C. After the immunoprecipitation, 20 μL of Dynabeads Protein G were added thereto and the culture was continued for 2 hours. The Dynabeads were washed continuously for 10 minutes with TSE 1 (0.1% SDS, 1% Triton X-100, 2 mmol/L EDTA, 20 mmol/L TrisHCl, and 150 mmol/L NaCl), TSE II (0.1% SDS, 1% Triton X-100, 2 mmol/L EDTA, 20 mmol/L TrisHCl, and 500 mmol/L NaCl), and buffer III (0.25 mol/L LiCl, 1% NP-40, 1% deoxycholate, 1 mmol/L EDTA, and 10 mmol/L TrisHCl). After that, the beads were washed 3 times with TE buffer, and extraction was made by using 1% SDS and 0.1 mol/L NaHCO3. To have reverse formaldehyde cross-linking, the elution solution was heated overnight at 65° C. By using NucleoSpin DNA clean-up kit, DNA debris were purified. By using primers specific to the TERT promoter region, the PCR amplified product was quantified by qPCR (ABI 7300; Applied Biosystems, Foster City, Calif., USA). The PCR amplification was normalized against the TERT intron. The primer sequences are as follows: β-catenin interaction site for ChIP (forward primer: TCCCGGGTCCCCGGCCCA (SEQ ID NO:8); reverse primer: […] (SEQ ID NO:9)) and TERT intron for ChIP (forward primer: […] (SEQ ID NO:10); reverse primer: […] (SEQ ID NO:11)). For each of the β-catenin interaction site which has been recorded before, 20-22 bp were added. The antibodies that are used are as follows: rabbit polyclonal anti-β-catenin (1:200, Abcam, Cambridge, Mass., USA; ab6302), mouse monoclonal anti-RNA polymerase II (1:50, Covance, Princeton, N.J., USA; MMS-126R), and rabbit polyclonal anti-SETD1A (1:100, Novus Biologicals, Littleton, Colo., USA; NBP1-81513).
Inventors of the present invention made an investigation to see whether or not the increased chromatin accessibility in TERT promoter during TERT transcription is related with β-catenin. To do so, by using intrinsic β-catenin and an antibody against histone methyl transferase SetD1A which has been reported to promote the TERT transcription based on chromatin remodeling, chromatin immunoprecipitation was carried out. When a PI3K or AKT inhibitor is treated together for chromatin immunoprecipitation, β-catenin and SetD1A, which bind to the TERT promoter in HCC cells, were reduced even in the presence of H2O2 (FIGS. 3A and 3B). However, when the treatment is carried out also with a GSK3p inhibitor, increased binding of β-catenin and SetD1A was shown regardless of a treatment with H2O2 (FIG. 3C).

**Q.** What does the source list for `CC[C@H](Nc1ncnc2nc[nH]c12)c1nc2cccc(F)c2c(=O)n1-c1ccccc1` [idelalisib, 5-fluoro-3-phenyl-2-[(1S)-1-(7H-purin-6-ylamino)propyl]-4(3H)-quinazolinone]?
**A.** IC50 [1]: < 30 µM; IC50 [2]: < 30 µM; SetD1A binding to the TERT promoter [3]: reduced; β-catenin binding to the TERT promoter [3]: reduced
